According to ChEMBL document CHEMBL3881525, “Analogs of dehydrophenylahistins and their therapeutic use” (2007):
Converted amounts (≈) assume the structure as drawn. The source made the active and inactive calls. The rule behind the calls is not given here.

Tests used:
[1] = Cytotoxicity against human PC3 cells assessed as reduction in cell viability measured after 48 hrs by resazurin dye-based fluorometric analysis; assay type: functional; details: PC-3, 48 h
[2] = Cytotoxicity against mouse B16F10 cells assessed as reduction in cell viability measured after 48 hrs by resazurin dye-based fluorometric analysis; assay type: functional; details: B16-F10, 48 h
[3] = Antiproliferative activity against taxol-resistant human MES-SA/Dx5 cells expressing MDR1 mRNA and P-gp; assay type: functional, cell-based
[4] = Antiproliferative activity against human mitoxantrone-sensitive HL60 cells; assay type: functional, cell-based; details: HL-60
[5] = Antiproliferative activity against human mitoxantrone-resistant HL60/MX2 cells; assay type: functional, cell-based; details: HL-60
Tubulin (Homo sapiens) [6] = target: T1, Tubulin (Homo sapiens) (UniProt P68371+Q9H4B7+P0DPH7+P68366+Q13509+Q71U36+P04350+Q3ZCM7+P07437+P68363+Q9BQE3+Q6PEY2+Q13885+Q9BVA1+Q9BUF5); test: Induction of microtubule depolymerization in human CCD-27Sk cells at 2 uM measured after 30 mins; assay type: cell-based
Tubulin (Homo sapiens) [7] = target: T1, Tubulin (Homo sapiens); test: Induction of microtubule depolymerization in human CCD-27Sk cells assessed as cell membrane blebbing at 2 uM measured after 30 mins; assay type: cell-based
Jurkat [8] = test: Induction of apoptosis in human Jurkat cells assessed as DNA laddering at 1 nM by gel electrophoresis; assay type: functional, cell-based
Jurkat [9] = test: Induction of apoptosis in human Jurkat cells assessed as PARP cleavage at 100 nM measured after 10 hrs by Western blotting; assay type: functional, cell-based
HUVEC [10] = test: Induction of monolayer permeability in HUVEC assessed as colchicin transport at 2 uM measured up to 1 hr; assay type: functional, cell-based; details: Homo sapiens
[11] = Antitumor activity against human HT-29 cells xenografted in nude mouse assessed as tumor growth inhibition at 7.5 mg/kg, ip administered every third day for 5 days relative to control; assay type: functional; details: HT-29, ip, 120 h, read-out: TGI
[12] = Antitumor activity against human HT-29 cells xenografted in nude mouse assessed as tumor growth inhibition at 10 mg/kg, ip administered every third day for 5 days in presence of CPT-11 relative to control; assay type: functional; details: HT-29, ip, 120 h, read-out: TGI
[13] = Antitumor activity against human MCF7 cells xenografted in nude mouse assessed as tumor growth inhibition at 7.5 mg/kg, ip qd administered every third day for 5 days in presence of CPT-11 relative to control; assay type: functional; details: 120 h, read-out: TGI
[14] = Antifungal activity against Trichophyton rubrum isolate 2 measured after 48 hrs by broth dilution method; assay type: functional
Trichophyton rubrum = test: Fungicidal activity against Trichophyton rubrum isolate 2 measured after 48 hrs by broth dilution method; assay type: functional; details: isolate 2, 48 h
[15] = Antifungal activity against Trichophyton mentagrophytes isolate 1 measured after 48 hrs by broth dilution method; assay type: functional
[16] = Antifungal activity against Trichophyton mentagrophytes isolate 2 measured after 48 hrs by broth dilution method; assay type: functional
[17] = Antifungal activity against Epidermophyton floccosum isolate 1 measured after 48 hrs by broth dilution method; assay type: functional
[18] = Antifungal activity against Epidermophyton floccosum isolate 2 measured after 48 hrs by broth dilution method; assay type: functional
Mus musculus [19] = test: Antivascular activity against mouse N202 tumor spheroids expressing H2B-GFP allografted in mouse assessed as inhibition of tumor-induced central vasculature at 10 mg/kg, iv administered on day 12 as infusion for 5 mins measured on day 15 by fluorescence video microscopy; assay type: functional, organism-based
Mus musculus [20] = test: Antivascular activity against mouse N202 tumor spheroids expressing H2B-GFP allografted in mouse assessed as inhibition of tumor-induced central vasculature at 5 mg/kg, iv administered on day 12 as infusion for 2 mins measured on day 15 by fluorescence video microscopy; assay type: functional, organism-based
[21] = Toxicity in mouse allografted with mouse N202 tumor spheroids expressing H2B-GFP at 10 mg/kg, iv administered on day 12 as infusion for 5 mins; assay type: organism-based; details: in vivo
[22] = Toxicity in mouse allografted with mouse N202 tumor spheroids expressing H2B-GFP at 5 mg/kg, iv administered on day 12 as infusion for 2 mins; assay type: organism-based; details: in vivo
[23] = Toxicity in mouse allografted with mouse N202 tumor spheroids expressing H2B-GFP assessed as effect on tumor surrounding vasculature in the dorsal skin fold at 10 mg/kg, iv administered on day 12 as infusion for 5 mins measured on day 15; assay type: organism-based; details: in vivo
HUVEC [24] = test: Induction of monolayer permeability in HUVEC measured up to 15 mins; assay type: functional, cell-based; details: Homo sapiens
Rattus norvegicus [25] = test: Effect on blood flow in rat skin at 15 mg/kg, ip measured after 1 hr by [125I]iodoantipyrine based method relative to vehicle control; assay type: ADME, organism-based; details: in vivo
Rattus norvegicus [26] = test: Effect on blood flow in rat kidney at 15 mg/kg, ip measured after 1 hr by [125I]iodoantipyrine based method relative to vehicle control; assay type: ADME, organism-based; details: in vivo
Rattus norvegicus [27] = test: Effect on blood flow in rat spleen at 15 mg/kg, ip measured after 1 hr by [125I]iodoantipyrine based method relative to vehicle control; assay type: ADME, organism-based; details: in vivo
Rattus norvegicus [28] = test: Effect on blood flow in rat gut at 15 mg/kg, ip measured after 1 hr by [125I]iodoantipyrine based method relative to vehicle control; assay type: ADME, organism-based; details: in vivo
Rattus norvegicus [29] = test: Reduction in blood flow in rat brain at 15 mg/kg, ip measured after 24 hrs by [125I]iodoantipyrine based method relative to vehicle control; assay type: ADME, organism-based; details: in vivo
Tubulin (Homo sapiens) [30] = target: T1, Tubulin (Homo sapiens); test: Induction of microtubule dynamic instability in human MCF7 cells assessed as effect on spindle morphology at mitotic block IC25 measured after 20 hrs by immunofluorescence analysis; assay type: cell-based
MCF7 [31] = test: Antimitotic activity in human MCF7 cells assessed as bipolar cells with uncompressed chromosomes at mitotic block IC50 measured after 20 hrs by immunofluorescence analysis relative to control; assay type: functional
MCF7 [32] = test: Antimitotic activity in human MCF7 cells assessed as microtubule polymer at twice mitotic block IC50 measured after 20 hrs by immunofluorescence analysis relative to control; assay type: functional, cell-based
Tubulin (Homo sapiens) [33] = target: T1, Tubulin (Homo sapiens); test: Induction of microtubule instability in human MCF7 cells assessed as mean growth rate at IC25 for mitotic block measured after 20 hrs by immunofluorescence analysis; assay type: cell-based
Tubulin (Homo sapiens) [34] = target: T1, Tubulin (Homo sapiens); test: Induction of microtubule instability in human MCF7 cells assessed as time spent for growth at IC25 for mitotic block measured after 20 hrs by immunofluorescence analysis; assay type: cell-based
Tubulin (Homo sapiens) [35] = target: T1, Tubulin (Homo sapiens); test: Induction of microtubule instability in human MCF7 cells assessed as time spent for shortening at IC50 for mitotic block measured after 20 hrs by immunofluorescence analysis; assay type: cell-based
Tubulin (Homo sapiens) [36] = target: T1, Tubulin (Homo sapiens); test: Induction of microtubule instability in human MCF7 cells assessed as time spent for attenuation at IC50 for mitotic block measured after 20 hrs by immunofluorescence analysis; assay type: cell-based
Tubulin (Homo sapiens) [37] = target: T1, Tubulin (Homo sapiens); test: Time required for induction of microtubule dynamic instability in human MCF7 cells at IC50 for mitotic block measured after 20 hrs by immunofluorescence analysis; assay type: cell-based
Tubulin (Homo sapiens) [38] = target: T1, Tubulin (Homo sapiens); test: Induction of microtubule dynamic instability in human MCF7 cells at IC25 for mitotic block measured after 20 hrs by immunofluorescence analysis; assay type: cell-based
[39] = target: Mitogen-activated protein kinase 10 (Rattus norvegicus) (UniProt P49187); details: 10 uM
Description: Inhibition of rat JNK3 at 10 uM in presence of ATP

Tubulin (Bos taurus) = Tubulin (Bos taurus) (UniProt Q6B856+Q862L2+Q862F3); details: 10 uM
Description: Inhibition of [3H]CLC binding to bovine brain tubulin at 10 uM measured after 120 mins in presence of GTP by scintillation counting method

Chain of Mitogen-activated protein kinase 10 (Rattus norvegicus) (P49187 whole entry): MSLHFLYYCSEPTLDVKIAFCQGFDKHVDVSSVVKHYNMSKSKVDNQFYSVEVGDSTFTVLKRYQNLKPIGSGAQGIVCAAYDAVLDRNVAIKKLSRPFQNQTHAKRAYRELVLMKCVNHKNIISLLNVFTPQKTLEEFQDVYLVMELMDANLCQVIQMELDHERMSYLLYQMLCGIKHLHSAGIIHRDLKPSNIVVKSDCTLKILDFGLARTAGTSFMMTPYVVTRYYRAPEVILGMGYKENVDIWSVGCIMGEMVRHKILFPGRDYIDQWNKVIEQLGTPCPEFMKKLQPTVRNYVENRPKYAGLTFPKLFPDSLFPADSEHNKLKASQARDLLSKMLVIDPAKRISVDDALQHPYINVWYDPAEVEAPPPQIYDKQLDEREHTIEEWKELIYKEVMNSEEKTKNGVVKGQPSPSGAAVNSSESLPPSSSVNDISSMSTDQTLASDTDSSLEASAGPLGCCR

## CC(C)(C)c1[nH]cnc1/C=c1\[nH]c(=O)/c(=C/c2ccccc2)[nH]c1=O [PLINABULIN]
[1]
  EC50: 1 to 13.4 nM
[2]
  EC50: 37.1 nM
[3]
  IC50: 10.5 to 23 nM
[4]
  EC50: 6.4 nM
[5]
  EC50: 8.17 nM
Tubulin (Homo sapiens) [6]
  Activity: Active
Tubulin (Homo sapiens) [7]
  Activity: Active
Jurkat [8]
  Activity: Active
Jurkat [9]
  Activity: Active
HUVEC [10]
  Activity: Active
[11]
  inhibition in vivo at 7.5 mg/kg: 9%
[12]
  inhibition in vivo at 10 mg/kg: 65.8 to 83.3%
[13]
  inhibition in vivo at 7.5 mg/kg: 26 to 81%
[14]
  MIC: < 0.03 µg/mL
Trichophyton rubrum
  MFC: 0.125 µg/mL (≈ 0.372 µM)
[15]
  MIC: 2 µg/mL (≈ 5.95 µM)
[16]
  MIC: > 16 µg/mL
[17]
  MIC: > 16 µg/mL
[18]
  MIC: > 16 µg/mL
Mus musculus [19]
  inhibition: Active
Mus musculus [20]
  inhibition: Active
[21]
  Activity: Non-Toxic
[22]
  Activity: Non-Toxic
[23]
  Activity: Non-Toxic
HUVEC [24]
  Activity: Dose-dependent effect
Rattus norvegicus [25]
  Activity: Non-Toxic
Rattus norvegicus [26]
  Activity: Non-Toxic
Rattus norvegicus [27]
  Activity: Non-Toxic
Rattus norvegicus [28]
  Activity: Non-Toxic
Rattus norvegicus [29]
  Activity: Toxic
Tubulin (Homo sapiens) [30]
  Activity: Active
MCF7 [31]
  Activity: Active
MCF7 [32]
  Activity: Active
Tubulin (Homo sapiens) [33]
  Activity: 11.9 um/min
Tubulin (Homo sapiens) [34]
  Activity: 29.7%
  TIME: 0.00517 h
Tubulin (Homo sapiens) [35]
  Activity: 20.9%
  TIME: 0.00367 h
Tubulin (Homo sapiens) [36]
  TIME: 0.0102 h
Tubulin (Homo sapiens) [37]
  TIME: 0.552 h
Tubulin (Homo sapiens) [38]
  Activity: 10.1 um/min
[39]
  inhibition: > 50%
Tubulin (Bos taurus)
  inhibition: Active
